As usually defined, the ED50 is the dose at which the effect has come halfway, by size or by number of responders.

For five molecules, MIC, ED50 and CC50 results are on record in ChEMBL document CHEMBL1129258, “Synthesis and structure-activity relationships of 2-pyridones: a novel series of potent DNA gyrase inhibitors as antibacterial agents” (J Med Chem, 1996).

The structures appear in SMILES notation. In brackets after ≈: the same amount, converted by molar mass. Some results are limits rather than exact numbers.

The target in test [1] is T1, DNA gyrase (Escherichia coli) (UniProt P0AES6+P0AES4). Briefly: In vitro antibacterial activity against gram-negative organism […] ATCC 13048. Type of test: functional. The following applies: Enterobacter aerogenes.
In test [2] the test system is Pseudomonas aeruginosa. Description: In vivo efficacy against Pseudomonas aeruginosa 5007 following p.o. administration.
Test [3] addresses T1, DNA gyrase (Escherichia coli). Description: In vitro antibacterial activity against gram-positive organism Enterococcus faecium ATCC 8043. Type of test: functional.
In test [4] the target is T2, DNA gyrase (Staphylococcus aureus) (UniProt P0A0K8+P20831). Description: In vivo efficacy against Staphylococcus aureus NCTC-10649M after subcutaneous administration. The test is classed as functional, organism-based.
T2 sequence (P0A0K8 2-644 limits assumed): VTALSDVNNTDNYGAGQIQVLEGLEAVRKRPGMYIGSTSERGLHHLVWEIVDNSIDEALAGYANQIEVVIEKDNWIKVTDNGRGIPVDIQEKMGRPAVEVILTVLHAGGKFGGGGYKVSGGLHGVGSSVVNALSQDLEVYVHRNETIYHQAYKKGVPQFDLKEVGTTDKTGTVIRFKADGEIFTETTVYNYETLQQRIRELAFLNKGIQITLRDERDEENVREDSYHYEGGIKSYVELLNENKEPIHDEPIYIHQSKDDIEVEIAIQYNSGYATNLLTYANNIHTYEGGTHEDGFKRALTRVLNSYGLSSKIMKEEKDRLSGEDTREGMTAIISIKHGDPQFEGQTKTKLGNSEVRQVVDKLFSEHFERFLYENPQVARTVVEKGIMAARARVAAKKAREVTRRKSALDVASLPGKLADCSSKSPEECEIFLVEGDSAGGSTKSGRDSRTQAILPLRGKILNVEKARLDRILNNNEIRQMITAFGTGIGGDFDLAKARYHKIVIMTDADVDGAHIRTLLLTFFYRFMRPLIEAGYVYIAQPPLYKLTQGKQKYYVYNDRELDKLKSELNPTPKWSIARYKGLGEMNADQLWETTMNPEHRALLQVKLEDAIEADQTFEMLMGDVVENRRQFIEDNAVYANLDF
T2 sequence (P20831 whole entry partner): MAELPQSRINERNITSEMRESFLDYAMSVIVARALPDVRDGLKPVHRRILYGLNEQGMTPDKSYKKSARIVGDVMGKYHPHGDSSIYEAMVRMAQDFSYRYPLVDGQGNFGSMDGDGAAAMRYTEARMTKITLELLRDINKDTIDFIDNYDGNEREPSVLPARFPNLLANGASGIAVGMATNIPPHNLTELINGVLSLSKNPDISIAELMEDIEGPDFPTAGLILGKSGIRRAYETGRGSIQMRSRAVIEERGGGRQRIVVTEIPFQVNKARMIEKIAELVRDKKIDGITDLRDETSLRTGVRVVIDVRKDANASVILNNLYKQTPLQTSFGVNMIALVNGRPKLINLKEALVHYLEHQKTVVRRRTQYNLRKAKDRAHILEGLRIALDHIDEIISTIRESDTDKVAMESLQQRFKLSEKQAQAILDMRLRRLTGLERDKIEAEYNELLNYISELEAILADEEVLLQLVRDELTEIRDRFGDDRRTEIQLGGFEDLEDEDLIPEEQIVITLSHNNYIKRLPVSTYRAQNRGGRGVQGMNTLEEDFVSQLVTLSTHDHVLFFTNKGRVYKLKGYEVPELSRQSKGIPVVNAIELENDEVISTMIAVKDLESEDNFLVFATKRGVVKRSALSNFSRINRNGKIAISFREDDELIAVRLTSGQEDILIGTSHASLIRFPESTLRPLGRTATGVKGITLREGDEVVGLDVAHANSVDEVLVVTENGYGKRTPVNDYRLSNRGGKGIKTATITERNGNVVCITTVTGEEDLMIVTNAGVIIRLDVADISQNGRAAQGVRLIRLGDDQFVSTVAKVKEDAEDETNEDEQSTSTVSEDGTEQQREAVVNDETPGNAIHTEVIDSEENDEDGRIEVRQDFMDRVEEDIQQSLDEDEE
Test [5] deals with T1, DNA gyrase (Escherichia coli). Description: In vivo efficacy against Escherichia coli JUHL by subcutaneous administration. Type of test: functional, organism-based. The following applies: Escherichia coli K-12.
The test system of test [6] is Streptococcus pneumoniae. Briefly: (§1) In vivo efficacy against Strep. administration. The test is classed as functional.
The target of test [7] is T2, DNA gyrase (Staphylococcus aureus). Briefly: In vitro antibacterial activity against gram-positive organism Staphylococcus aureus 1775. The test is classed as functional.
Test [8] concerns the target T1, DNA gyrase (Escherichia coli). Briefly: In vitro antibacterial activity against gram-positive organism Streptococcus bovis A-5169. As to conditions: Streptococcus equinus. Type of test: functional.
Test [9] shares this target. Briefly: In vitro antibacterial activity against gram-negative organism Prov. stuartii CMX-640. The test is classed as functional. The following applies: Providencia stuartii.
The target in test [10] is T2, DNA gyrase (Staphylococcus aureus). Description: In vitro antibacterial activity against gram-positive organism Staphylococcus aureus NCTC-10649M. The test is classed as functional.
Test [11] concerns Streptococcus pneumoniae. The description is as §1. Type of test: functional. The source holds these as a separate data set.
Test [12] can be described thus: In vitro antibacterial activity against gram-negative organism Pseudomonas aeruginosa DPHD-2862. Type of test: functional. As to conditions: Pseudomonas aeruginosa; read-out: MIC.
Test [13] has as its target T1, DNA gyrase (Escherichia coli). Description: In vitro antibacterial against gram-negative organism Escherichia coli JUHL. The test is classed as functional. As to conditions: Escherichia coli K-12.
The target is the same in test [14]. Briefly: In vitro antibacterial activity against gram-negative organism Klebsiella pneumoniae ATCC 8045. Type of test: functional.
For test [15], the target named is T2, DNA gyrase (Staphylococcus aureus). Briefly: In vitro antibacterial activity against gram-positive organism Staphylococcus aureus ATCC 6538p. The test is classed as functional.
The target of test [16] is T1, DNA gyrase (Escherichia coli). Description: In vivo efficacy against Escherichia coli JUHL after oral administration. Type of test: functional, organism-based. As to conditions: Escherichia coli K-12.
The nature of test [17]: In vitro antibacterial activity against gram-negative organism Pseudomonas aeruginosa 5007. Type of test: functional. As to conditions: Pseudomonas aeruginosa; read-out: MIC.
Test [18] concerns the target T1, DNA gyrase (Escherichia coli). The following applies: Escherichia coli K-12.
Description: Concentration which causes 50% of the gyrase (Escherichia coli H560)-mediated maximal DNA cleavage.
Test [19] is described as follows: In vivo efficacy against Pseudomonas aeruginosa 5007 after subcutaneous administration. Type of test: functional. As to conditions: Pseudomonas aeruginosa, sc; read-out: ED50.
In test [20] the test system is Streptococcus pyogenes. Description: In vitro antibacterial activity against gram-positive organism Streptococcus pyogenes EES61. Type of test: functional. As to conditions: Streptococcus pyogenes; read-out: MIC.
The target in test [21] is T2, DNA gyrase (Staphylococcus aureus). Briefly: (§2) In vivo efficacy against Staphylococcus aureus NCTC-10649M after oral administration. Type of test: functional, organism-based.
The test system of test [22] is Staphylococcus aureus. The test is described as §2. The test is classed as functional.
Test [23] deals with Streptococcus pneumoniae. The description is as §1. Type of test: functional. The source holds these as a separate data set.
Test [24] concerns Streptococcus equinus. Briefly: In vitro antibacterial activity against gram-positive organism Strep. bovis A-5169. Type of test: functional.
For test [25], the system named is Enterococcus faecium. Description: In vitro antibacterial activity against gram-positive organism Enterococcus faecium ATCC 8043.
In test [26] the test system is Staphylococcus aureus. Description: In vivo efficacy against Staphylococcus aureus NCTC-10649M by orally administered. The test is classed as functional.
The subject of test [27] is Streptococcus pneumoniae. Briefly: In vivo efficacy against Stap. administered. Type of test: functional.
Test [28] deals with Escherichia coli. Description: In vivo efficacy against Escherichia coli JUHL by orally administered. The test is classed as functional. The following applies: po.
The subject of test [29] is Staphylococcus aureus. Briefly: In vivo efficacy against Staphylococcus aureus NCTC-10649M by subcutaneously administered. The test is classed as functional.
In test [30] the test system is Escherichia coli. Briefly: In vivo efficacy against Escherichia coli JUHL by subcutaneously administered. The test is classed as functional. The following applies: sc.
The test system of test [31] is Pseudomonas aeruginosa. Briefly: In vivo efficacy against Pseudomonas aeruginosa 5007 by subcutaneously administered. The test is classed as functional. As to conditions: sc.

As to `NC1CCN(c2c(F)cn3c(=O)c(C(=O)O)cc(C4CC4)c3c2Cl)C1` (configuration not stated), the MIC in test [1] was 0.1 µg/mL (≈ 0.273 µM); in test [3], 0.39 µg/mL (≈ 1.07 µM); in test [7], 6.2 µg/mL (≈ 16.9 µM); in test [8], 0.78 µg/mL (≈ 2.13 µM); in test [9] it was 3.1 µg/mL (≈ 8.47 µM); in test [10], 0.2 µg/mL (≈ 0.547 µM). Besides, the MIC in test [12] stood at 6.2 µg/mL (≈ 16.9 µM); in test [13], 0.05 µg/mL (≈ 0.137 µM); in [14], 0.05 µg/mL (≈ 0.137 µM); in test [15], 0.2 µg/mL (≈ 0.547 µM); in [17] it was 0.39 µg/mL (≈ 1.07 µM); in test [20], 0.39 µg/mL (≈ 1.07 µM). Further, the ED50 in [2] was determined as 17 mg/kg; in [4], 1.6 mg/kg; in test [5], 1 mg/kg; in test [6], 8.5 mg/kg; in test [11], 11.1 mg/kg; in test [16], 5.6 mg/kg. The ED50 in test [19] worked out at 3.3 mg/kg; in test [21] it was 5.7 mg/kg. The CC50 in test [18] came to 0.31 µg/mL (≈ 0.847 µM).
With `Cc1c(N2CC[C@@H]([C@@H](C)N)C2)c(F)cn2c(=O)c(C(=O)O)cc(C3CC3)c12`, the MIC in test [1] worked out at 0.01 µg/mL (≈ 0.0268 µM); in [3], 0.01 µg/mL (≈ 0.0268 µM); in test [7] it was 0.39 µg/mL (≈ 1.04 µM); in test [8], 0.01 µg/mL (≈ 0.0268 µM); in test [9], 0.78 pug ml-1; in test [10], 0.002 µg/mL (≈ 0.00536 µM). The MIC in test [12] was determined as 6.2 µg/mL (≈ 16.6 µM); in test [13], 0.001 µg/mL (≈ 0.00268 µM); in test [14], 0.001 µg/mL (≈ 0.00268 µM); in test [15], 0.002 µg/mL (≈ 0.00536 µM); in [17] it was 0.2 µg/mL (≈ 0.536 µM); in test [20] it was 0.005 µg/mL (≈ 0.0134 µM). For the same molecule, the ED50 in [2] is 24.4 mg/kg; in [4], less than 0.2 mg/kg; in test [5], 0.5 mg/kg; in test [22], 1.1 mg/kg; in [16] it was 5.7 mg/kg; in test [19] it was 5.4 mg/kg. Moreover, in test [18], the CC50 was 0.4 µg/mL (≈ 1.07 µM).
For the molecule `Cc1c(N2CC[C@@H](O)C2)c(F)cn2c(=O)c(C(=O)O)cc(C3CC3)c12`, the MIC in test [1] is 0.2 µg/mL (≈ 0.577 µM); in test [3], 0.2 µg/mL (≈ 0.577 µM); in test [24], 0.2 µg/mL (≈ 0.577 µM); in [7], 1.56 µg/mL (≈ 4.5 µM); in test [9], 0.78 µg/mL (≈ 2.25 µM); in test [10] it was 0.02 µg/mL (≈ 0.0577 µM). The MIC worked out at 25 µg/mL (≈ 72.2 µM) in [12]; 0.1 µg/mL (≈ 0.289 µM) in [13]; 0.02 µg/mL (≈ 0.0577 µM) in test [14]; 0.02 µg/mL (≈ 0.0577 µM) in [15]; 0.78 µg/mL (≈ 2.25 µM) in test [17]. In addition, the ED50 is 6.1 mg/kg in [4], more than 2 mg/kg in test [23] and 11.2 mg/kg in test [21].
`NC1CCN(c2nc3c(-c4ccc(F)cc4F)cc(C(=O)O)c(=O)n3cc2F)C1` (configuration not stated): the MIC in test [1] is 0.05 µg/mL (≈ 0.124 µM); in test [25], 0.78 µg/mL (≈ 1.93 µM); in [7], more than 100 µg/mL; in test [8], 1.56 µg/mL (≈ 3.86 µM); in test [9], 1.56 µg/mL (≈ 3.86 µM); in test [10], 0.1 µg/mL (≈ 0.247 µM). Besides, the MIC in test [12] is 100 µg/mL (≈ 247 µM); in [13], 0.02 µg/mL (≈ 0.0495 µM); in test [14] it was 0.02 µg/mL (≈ 0.0495 µM); in test [15], 0.1 µg/mL (≈ 0.247 µM); in test [17], 0.39 µg/mL (≈ 0.965 µM); in [20], 0.39 µg/mL (≈ 0.965 µM). Besides, the ED50 in test [2] is 42.1 mg/kg; in test [4], 4.4 mg/kg; in test [5] it was 1 mg/kg; in test [16], 5.6 mg/kg; in test [19], 10.3 mg/kg; in [21] it was 12 mg/kg. This molecule also gave a CC50 in test [18] of 0.5 µg/mL (≈ 1.24 µM).
As to `Cc1c(N2CCC(N)C2)c(F)cn2c(=O)c(/C(O)=C/[N+](=O)[O-])cc(C3CC3)c12` (configuration not stated), the MIC in test [1] is 0.1 µg/mL (≈ 0.257 µM); in [3], 0.39 µg/mL (≈ 1 µM); in test [7], 6.2 µg/mL (≈ 16 µM); in test [8], 0.2 µg/mL (≈ 0.515 µM); in test [9], 1.56 µg/mL (≈ 4.02 µM); in [10] it was 0.1 µg/mL (≈ 0.257 µM). In addition, the MIC in test [12] is 6.2 µg/mL (≈ 16 µM); in test [13] it was 0.02 µg/mL (≈ 0.0515 µM); in test [14], 0.02 µg/mL (≈ 0.0515 µM); in test [15] it was 0.05 µg/mL (≈ 0.129 µM); in test [17], 0.39 µg/mL (≈ 1 µM); in test [20] it was 0.2 µg/mL (≈ 0.515 µM). Moreover, the ED50 was 25.2 mg/kg in test [26]; more than 8 mg/kg in test [27]; more than 10 mg/kg in [28]; more than 12 mg/kg in test [29]; more than 5 mg/kg in test [30]; 3.2 mg/kg in [31]. Also, the CC50 in [18] worked out at 3 µg/mL (≈ 7.72 µM).
